Tests used:
NEK9 = biological target: T1, NEK9 (Homo sapiens, UniProt Q8TD19); experiment: Off-chip Mobility Shift Assay (MSA) profiling, NEK9; format: biochemical; settings: ATP approximating Km
T1 sequence (Q8TD19 1-979): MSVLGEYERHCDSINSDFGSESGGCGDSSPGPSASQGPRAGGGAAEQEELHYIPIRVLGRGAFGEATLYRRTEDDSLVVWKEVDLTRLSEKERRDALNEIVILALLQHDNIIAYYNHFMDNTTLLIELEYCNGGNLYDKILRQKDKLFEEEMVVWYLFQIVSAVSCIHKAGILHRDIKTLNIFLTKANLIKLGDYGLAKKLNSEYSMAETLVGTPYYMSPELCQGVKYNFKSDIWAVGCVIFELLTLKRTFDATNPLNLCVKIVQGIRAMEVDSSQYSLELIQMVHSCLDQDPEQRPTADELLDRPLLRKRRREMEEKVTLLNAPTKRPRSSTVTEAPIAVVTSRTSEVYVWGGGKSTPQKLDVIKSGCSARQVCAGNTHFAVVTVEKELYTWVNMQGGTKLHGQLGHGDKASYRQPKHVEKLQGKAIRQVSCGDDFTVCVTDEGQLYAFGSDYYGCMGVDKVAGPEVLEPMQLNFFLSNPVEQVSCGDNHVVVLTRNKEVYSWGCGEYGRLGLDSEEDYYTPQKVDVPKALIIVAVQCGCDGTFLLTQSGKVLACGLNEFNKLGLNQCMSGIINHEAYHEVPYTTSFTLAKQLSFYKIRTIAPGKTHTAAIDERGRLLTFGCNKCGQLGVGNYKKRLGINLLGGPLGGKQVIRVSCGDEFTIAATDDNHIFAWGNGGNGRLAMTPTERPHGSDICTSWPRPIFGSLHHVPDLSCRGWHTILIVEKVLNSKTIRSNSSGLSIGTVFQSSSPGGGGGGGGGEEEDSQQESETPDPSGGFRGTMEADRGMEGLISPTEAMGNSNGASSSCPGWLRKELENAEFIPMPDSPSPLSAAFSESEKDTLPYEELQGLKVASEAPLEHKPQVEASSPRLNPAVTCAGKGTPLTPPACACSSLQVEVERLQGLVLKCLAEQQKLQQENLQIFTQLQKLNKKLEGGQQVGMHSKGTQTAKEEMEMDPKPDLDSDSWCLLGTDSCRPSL
Method: Therefore, we decided to evaluate the selectivity of compound 8 against a panel of NEK kinases at 10 µM, using the technique of Off-chip Mobility shift assay. This concentration was chosen according to the guidelines proposed by Knight and Shokat, since the probability of off-target effects increases dramatically above 10 µM[36]. Furthermore, ATP concentration was set to approximate the Km,ATP for each kinase, so that the resulting selectivity profile directly reflects the intrinsic affinities of the inhibitor[37]. […] A major consequence of this substitution may be the redistribution of surface charges at the flexible activation loop resulting in an altered electrostatic potential and ability of NEK6 kinase to interact with other molecules.
The inhibitory activity of compounds 8 and 21 on NEK6 was also verified with MSA technique (Off-chip Mobility shift assay) (CARNA Biosciences Study ID: CBS170097, CARNA Biosciences, Kobe). […] PKR Inhibitor was used as positive control. For profiling study against NEK kinases (i.e. NEK1, NEK2, NEK6, NEK7, NEK9) (CARNA Biosciences Study ID: CBS170098), 8 was tested at 10 μM and ATP concentration approximating Km for each kinase. Assay condition for kinases are available on “Kinase profiling book” downloading by www.carnabio.com (https://www.carnabio.com/output/pdf/ProfilingProfilingBook_en.pdf).

PEO1 cells = experiment: Cell cycle analysis by flow cytometry; format: cell-based, human; settings: 48 hours, compound at its IC50 concentration
Method: In order to assess whether the ability of compound 8 to inhibit cell proliferation was accounted for by cell cycle-related changes in cell division, we analysed the progression of PEO1 cells through the cell cycle by flow cytometry at 24, 48 and 72 hours from treatment. PEO1 was selected since, in our experimental conditions, was the cell line showing the highest sensitivity to 8. […] The effect was already measurable at the first experimental time point (24 h) and remained stable over time (Fig. 8).
PEO1 cell cycle perturbations induced by compound 8 (used at its IC50 concentration) were evaluated by standard flow cytometry methods. Briefly, at the end of each incubation period adherent cells were trypsinized, harvested and washed with cold phosphate-buffered saline several times. Cells were then counted, gently fixed in 70% v/v cold ethanol, adding the ethanol dropwise to the cell pellet while vortexing, and incubated at −20 °C for no longer than 7 days. Prior to DNA staining, fixed cells were spun down and treated with RNase (100 µg/ml) for 10 mins to ensure that only DNA was stained. 1 × 10^6/ml cells were then stained with propidium iodide (PI, 0.5 mg/ml) and stored at +4 °C overnight. The day after, stained cells were subjected to flow cytometry. Flow cytometry analysis was performed using the 6-parameter flow cytometer (2 scatter and 4 fluorescence signals) EPICS-XL (Beckman Coulter). A minimum of 30,000 cells of interest were acquired for each sample at a low flow rate (<200 events/sec). Analysis of cell cycle perturbation was performed by the ModFit LT software (Verity software house). Pulse shape processing was used to exclude cell doublets from the analysis.

MDA-MB-231 (breast) = experiment: Cell-based cytotoxicity assay (ATPlite), MDA-MB-231; settings: Homo sapiens, MDA-MB-231, 72 h, NA = not active (IC50 greater than 100 µM), read-out: IC50 Values (µM ± SEM)
Text: (§1) The following human carcinoma cell lines were used for the study: MDA-MB-231 and MCF-7 (breast cancer; ATCC, Sesto San Giovanni, MI), PEO1 and COV318 (ovarian cancer; ECACC, Salisbury, UK and ATCC), HCT-15 and SW948 (colon cancer; Public Health England, Salisbury, UK and ATCC), NCI-H1975 and NCI-H1299, (lung cancer; ATCC). Cells were routinely tested free of mycoplasma (MycoAlert mycoplasma detection kit, LONZA, Rockland, ME, USA) and validated by STR (Short Tandem Repeat) DNA profiling (BMR Genomics srl, PD). Cells were grown following supplier indication, in a fully humidified atmosphere of 5% CO2/95% air. All the reagents were purchased from Sigma-Aldrich (St. Louis, MO), if not otherwise specified.

PEO1 (ovary) = experiment: Cell-based cytotoxicity assay (ATPlite), PEO1; set-up: species or system human; settings: Homo sapiens; PEO1, 72 h, ATPlite; NA = not active (IC50 greater than 100 µM); read-out: IC50 Values (µM ± SEM)
Text: as §1

NCI-H1299 (lung) = experiment: Cell-based cytotoxicity assay (ATPlite), NCI-H1299; settings: Homo sapiens, NCI-H1299, 72 h, NA = not active (IC50 greater than 100 µM), read-out: IC50 Values (µM ± SEM)
Text: as §1

CC1=C(C#N)C(O)=NC(=O)/C1=C\c1ccc(-c2ccccc2)o1 [Compound 8, (5Z)-2-hydroxy-4-methyl-6-oxo-5-[(5-phenylfuran-2-yl)methylidene]-5,6-dihydropyridine-3-carbonitrile]
inhibition at 10 µM (NEK9): 3.1%
percentage of PEO1 cells in G0/G1 (PEO1 cells): 61%
percentage of PEO1 cells in G2/M (PEO1 cells): 16%
percentage of PEO1 cells in S (PEO1 cells): 23%
IC50 (MDA-MB-231 (breast)): 65 ± 15 µM
IC50 (PEO1 (ovary)): 44 ± 6.5 µM
IC50 (NCI-H1299 (lung)): 87.8 ± 10 µM

Source: PMC6207720, “Identification and antitumor activity of a novel inhibitor of the NIMA-related kinase NEK6” (Scientific Reports, 2018)
